Literature values as cited in patent publication US6602892B1, “Methods for nicotine replacement dosage determination” (priority 1993, dated 2003).

Details: in vivo

Structure (SMILES) | half life
CN1C(=O)CC[C@H]1c1cccnc1 [cotinine] | about 20 hours
CN1CCCC1c1cccnc1 (centres unmarked) [nicotine] | two
